Like-named read-outs stand apart in the source and are kept apart here.
System: Anopheles stephensi
Test: Anopheles stephensi treated well plate contact test: knockdown and mortality
Format: in vivo
Conditions: for mortality at 2 ppm: Anopheles stephensi
How it was run: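 Well surfaces coated with ethanol solution of compound at a defined concentration, alone or with 2 ppm TFNA-AM, then dried. Five non-blood-fed 2–5-day-old adult females per well, fed 10% sucrose; knockdown scored at 1 hour, mortality at 24 and 48 hours, replicate means reported.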

[1] = test compound 0.2 ppm plus 2 ppm TFNA-AM, after 24 hours
[2] = test compound 0.2 ppm plus 2 ppm TFNA-AM, after 48 hours
[3] = test compound 0.2 ppm plus 2 ppm TFNA-AM, knockdown after 1 hour
[4] = test compound 0.2 ppm, after 24 hours
[5] = test compound 0.2 ppm, after 48 hours
[6] = test compound 0.2 ppm, knockdown after 1 hour
[7] = test compound 2 ppm plus 2 ppm TFNA-AM, after 24 hours
[8] = test compound 2 ppm plus 2 ppm TFNA-AM, after 48 hours
[9] = test compound 2 ppm plus 2 ppm TFNA-AM, knockdown after 1 hour
[10] = test compound 2 ppm, after 24 hours
[11] = test compound 2 ppm, after 48 hours
[12] = test compound 2 ppm, knockdown after 1 hour
[13] = test compound 20 ppm plus 2 ppm TFNA-AM, after 24 hours
[14] = test compound 20 ppm plus 2 ppm TFNA-AM, after 48 hours
[15] = test compound 20 ppm plus 2 ppm TFNA-AM, knockdown after 1 hour
[16] = test compound 20 ppm, after 24 hours
[17] = test compound 20 ppm, after 48 hours
[18] = test compound 20 ppm, knockdown after 1 hour
[19] = test compound 200 ppm plus 2 ppm TFNA-AM, after 24 hours
[20] = test compound 200 ppm plus 2 ppm TFNA-AM, after 48 hours
[21] = test compound 200 ppm plus 2 ppm TFNA-AM, knockdown after 1 hour
[22] = test compound 200 ppm, after 24 hours
[23] = test compound 200 ppm, after 48 hours
[24] = test compound 200 ppm, knockdown after 1 hour, adult females

Row | Compound | mortality % 24, with TFNA-AM [1] [%] | mortality % 48, with TFNA-AM [2] [%] | Knock Down, with TFNA-AM [3] [%] | mortality % 24, without TFNA-AM [4] [%] | mortality % 48, without TFNA-AM [5] [%] | Knock Down, without TFNA-AM [6] [%] | mortality % 24, with TFNA-AM [7] [%] | mortality % 48, with TFNA-AM [8] [%] | Knock Down, with TFNA-AM [9] [%] | mortality % 24, without TFNA-AM [10] [%] | mortality % 48, without TFNA-AM [11] [%] | Knock Down, without TFNA-AM [12] [%] | mortality % 24, with TFNA-AM [13] [%] | mortality % 48, with TFNA-AM [14] [%] | Knock Down, with TFNA-AM [15] [%] | mortality % 24, without TFNA-AM [16] [%] | mortality % 48, without TFNA-AM [17] [%] | Knock Down, without TFNA-AM [18] [%] | mortality % 24, with TFNA-AM [19] [%] | mortality % 48, with TFNA-AM [20] [%] | other results
1 | Spinosad | 80 | 100 | 100 | 0 | 0 | 40 | 100 | 100 | 100 | 0 | 0 | 40 | 100 | 80 | 100 | 0 | 0 | 40 | 100 | 100 | Knock Down, with TFNA-AM [21]: 100%; mortality % 24, without TFNA-AM [22]: 40%; mortality % 48, without TFNA-AM [23]: 40%; Knock Down, without TFNA-AM [24]: 60%
2 | O=C1C=C(N(Cc2ccc(Cl)nc2)CC(F)F)CO1 [Flupyradifurone] | 10 | 0 | 100 | 0 | 0 | 0 | 20 | 20 | 100 | 0 | 0 | 0 | 50 | 60 | 100 | 0 | 10 | 0 | 70 | 90 | Knock Down, with TFNA-AM [21]: 100%; mortality % 24, without TFNA-AM [22]: 20%; mortality % 48, without TFNA-AM [23]: 30%; Knock Down, without TFNA-AM [24]: 0%
3 | NC(=O)c1cnccc1C(F)(F)F [TFNA-AM, 4-(trifluoromethyl)pyridine-3-carboxamide] | – | – | – | – | – | – | – | – | – | – | – | – | – | – | – | – | – | – | – | – | mortality at 2 ppm (TFNA-AM 2 ppm alone, after 24 hours, read-out: mortality % 24, TFNA-AM alone): 18.3%; mortality at 2 ppm (TFNA-AM 2 ppm alone, after 48 hours, read-out: mortality % 48, TFNA-AM alone): 11.7%; Knock Down, TFNA-AM alone (TFNA-AM 2 ppm alone, knockdown after 1 hour): 75.5%
4 | Abamectin | 20 | 27 | 100 | 13 | 20 | 0 | 47 | 53 | 100 | 13 | 33 | 0 | 93 | 100 | 100 | 53 | 87 | 7 | 100 | 100 | Knock Down, with TFNA-AM [21]: 100%; mortality % 24, without TFNA-AM [22]: 100%; mortality % 48, without TFNA-AM [23]: 100%; Knock Down, without TFNA-AM [24]: 47%

— patent publication US20260206755A1, “COMPOUNDS AND COMPOSITIONS HAVING KNOCK-DOWN OR BLOOD FEED INHIBITION ACTIVITY AGAINST INSECT PESTS” (priority 2017, published 2026)
